Ends that are not written are not given here. Peptide text beside a SMILES is read from it.
test system: ssDNA; assay: Centrifugation-based pull-down (solubility) assay; format: physicochemical; details: not given
Experimental: Next, to quantify the propensity of these peptides to induce the aggregation, we developed a centrifugation‐based pull‐down assay (Figure 1e). In this assay, the cationic peptide pulls down the interacting BCN‐free ssDNA, forming large macromolecular aggregates that are sedimented as a pellet. The amount of ssDNA remaining in the soluble supernatant is then determined by measuring its absorbance at 260 nm.^[ [40], [41] ^] […] The soluble fraction for both peptides increased as the NaCl concentration was raised, confirming that the aggregation is driven by electrostatic interactions. […] To determine the soluble fraction of ssDNA after mixing with peptides, the mixtures were prepared as described above and then centrifuged at 16 000 × g for 5 min at room temperature. The supernatants were carefully collected, and the ssDNA concentration was measured by absorbance at 260 nm (OD260) on a NanoDrop spectrophotometer. The soluble fraction was calculated as OD260,supernatant/OD260,initial, where OD260,initial corresponds to the absorbance of the ssDNA reference solution (0.07 mM in 1× TE buffer without peptide or salt).

Row | Molecule | Soluble ssDNA fraction in supernatant after centrifugation with peptide
1 | ISQAVHAAHAEINEAGR [AP3] | weaker aggregation tendencies compared with CP1 and CP2
2 | EQLESIINFEKLTEWT [AP2] | highly soluble across all conditions

same assay, conditions: BCN-free ssDNA 0.07 mM in 1x TE, tenfold molar excess peptide, varying NaCl, 16 000 x g 5 min room temperature, OD260 supernatant/initial, n = 3

Row | Molecule | Soluble ssDNA fraction in supernatant after centrifugation with peptide
3 | GGGSEEEYRSRKYSSWYVALKR [CP2] | salt‐dependent solubility
4 | KLTWQELYQLKYKGI [CP6] | weaker aggregation tendencies compared with CP1 and CP2
5 | YRSRKYSSWYVALKR [CP1] | salt‐dependent solubility
6 | SSSHPIFHRGEFSV [NP5] | weaker aggregation tendencies compared with CP1 and CP2
7 | CC[C@H](C)[C@H](NC(=O)[C@H](CCCCN)NC(=O)[C@H](CCC(N)=O)NC(=O)[C@H](CC(N)=O)NC(=O)[C@H](CS)NC(=O)[C@H](C)NC(=O)[C@H](C)NC(=O)CNC(=O)[C@H](CCCNC(=N)N)NC(=O)[C@H](Cc1c[nH]c2ccccc12)NC(=O)CNC(=O)[C@@H]1CCCN1C(=O)[C@H](CCCNC(=N)N)NC(=O)[C@@H](N)CS)C(=O)N[C@@H](CC(C)C)C(=O)O [CP4] (H-CRPGWRGAACNQKIL-OH) | highly soluble across all conditions
8 | RGIDKRHWNSQ [CP3] | weaker aggregation tendencies compared with CP1 and CP2
9 | PKKKR [CP5, brain-derived neurotrophic factor (BDNF) mimic peptide, cyclic, cationic, net charge +3] | weaker aggregation tendencies compared with CP1 and CP2
10 | CC[C@H](C)[C@H](NC(=O)[C@@H](NC(=O)[C@H](CC(C)C)NC(=O)[C@H](CO)NC(=O)[C@H](Cc1c[nH]cn1)NC(=O)[C@@H](NC(=O)[C@@H](NC(=O)CNC(=O)[C@H](Cc1c[nH]cn1)NC(=O)[C@H](CCCNC(=N)N)NC(=O)[C@H](CCCNC(=N)N)NC(=O)[C@H](CCSC)NC(=O)[C@H](CCC(=O)O)NC(=O)[C@H](Cc1ccc(O)cc1)NC(=O)[C@H](CCCCN)NC(=O)[C@H](CC(N)=O)NC(=O)CNC(=O)[C@@H]1CCCN1C(=O)[C@H](CS)NC(=O)[C@H](CC(C)C)NC(=O)[C@H](CCC(=O)O)NC(=O)[C@@H](NC(=O)CNC(=O)[C@H](CCC(=O)O)NC(=O)[C@@H](N)CCCNC(=N)N)C(C)C)[C@@H](C)O)[C@@H](C)O)C(C)C)C(=O)N[C@@H](Cc1c[nH]cn1)C(=O)N[C@@H](CC(=O)O)C(=O)O [NP1] | weaker aggregation tendencies compared with CP1 and CP2

Source: paper PMC12790360, “Characterization of Non‐Specific Electrostatic Interactions of Cationic Peptides with DNA Origami and Their Functional Consequences” (Small Methods, 2025)
